Columns and labels:
giant foxtail = assay: Test E preemergence; type: in vivo, Setaria faberii; details: for Foxtail, Giant plant response rating: scale 0 to 100 (0 no effect, 100 complete control)
Text: (§1) Seeds of plant species selected from corn (Zea mays), soybean (Glycine max), velvetleaf (Abutilon theophrasti), lambsquarters (Chenopodium album), wild poinsettia (Euphorbia heterophylla), palmer pigweed (Amaranthus palmeri), waterhemp (common waterhemp, Amaranthus rudis), surinam grass (Brachiaria decumbens), large (Lg) crabgrass (Digitaria sanguinalis), Brazilian crabgrass (Digitaria horizontalis), fall panicum (Panicum dichotomiflorum), giant foxtail (Setaria faberii), green foxtail (Setaria viridis), goosegrass (Eleusine indica), johnsongrass (Sorghum halepense), ragweed (common ragweed, Ambrosia elatior), barnyardgrass (Echinochloa crus-galli), sandbur (southern sandbur, Cenchrus echinatus), arrowleaf sida (Sida rhombifolia), Italian ryegrass (Lolium multiflorum), dayflower (Virginia (VA) dayflower, Commelina virginica), field bindweed (Convolvulus arvensis), morningglory (Ipomoea coccinea), nightshade (eastern black nightshade, Solanum ptycanthum), kochia (Kochia scoparia), yellow nutsedge (Cyperus esculentus), cocklebur (common cocklebur, Xanthium strumarium), smartweed (ladysthumb smartweed, and hairy beggarticks (Bidens pilosa), were planted into a silt loam soil and treated preemergence with test chemicals formulated in a non-phytotoxic solvent mixture which included a surfactant.
(§2) At the same time, plants from these crop and weed species and also horseweed (Canada horseweed, Conyza canadensis), waterhemp_RES1, (ALS & Triazine resistant common waterhemp, Amaranthus rudis), and waterhemp_RES2, (ALS & HPPD resistant common waterhemp, Amaranthus rudis) were planted in pots containing Redi-Earth® planting medium (Scotts Company, 14111 Scottslawn Road, Marysville, Ohio 43041) comprising spaghnum peat moss, vermiculite, wetting agent and starter nutrients were treated with postemergence applications of test chemicals formulated in the same manner. Plants ranged in height from 2 to 18 cm for postemergence treatments (1- to 4-leaf stage). Treated plants and controls were maintained in a greenhouse for 14 to 21 days, after which time all species were compared to controls and visually evaluated. Plant response ratings, summarized in Table E, are based on a scale of 0 to 100 where 0 is no effect and 100 is complete control. A dash (-) response means no test result.

Brazilian crabgrass = assay: Test E preemergence; type: in vivo, Digitaria horizontalis; details: for Crabgrass, Brazil plant response rating: scale 0 to 100 (0 no effect, 100 complete control)
Text: as §1, §2

large (Lg) crabgrass = assay: Test E preemergence; type: in vivo, Digitaria sanguinalis; details: for Crabgrass, Large plant response rating: scale 0 to 100 (0 no effect, 100 complete control)
In short: (§3)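 Test chemicals formulated in a non-phytotoxic solvent mixture containing a surfactant were applied preemergence to seeds in silt loam soil or postemergence to plants at the 1- to 4-leaf stage in potting mix. After 14 to 21 days in a greenhouse, injury was visually rated against controls on a 0-100 scale (0 = no effect, 100 = complete control).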

ducksalad = assay: Test C flooded paddy test; type: in vivo, Heteranthera limosa; details: Flood, scale 0 to 100 (0 no effect, 100 complete control), 13 to 15 days
In short: (§4)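 Visual injury ratings against untreated controls, taken 13 to 15 days after compound was added to paddy water standing 3 cm above the soil.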

nightshade = assay: Test E preemergence; type: in vivo, Solanum ptycanthum; details: for Nightshade plant response rating: scale 0 to 100 (0 no effect, 100 complete control)
In short: as §3

barnyardgrass = assay: Test E preemergence; type: in vivo, Echinochloa crus-galli; details: preemergence; for Barnyardgrass plant response rating: scale 0 to 100 (0 no effect, 100 complete control)
In short: as §3

velvetleaf = assay: Test E preemergence; type: in vivo, Abutilon theophrasti; details: for Velvetleaf plant response rating: scale 0 to 100 (0 no effect, 100 complete control)
In short: as §3

green foxtail = assay: Test E preemergence; type: in vivo, Setaria viridis; details: for Foxtail, Green plant response rating: scale 0 to 100 (0 no effect, 100 complete control)
Text: as §1, §2

rice = assay: Test C flooded paddy test; type: in vivo, Oryza sativa; details: Flood, scale 0 to 100 (0 no effect, 100 complete control), 13 to 15 days
In short: as §4

wild poinsettia = assay: Test E preemergence; type: in vivo, Euphorbia heterophylla; details: for Poinsettia, Wild plant response rating: scale 0 to 100 (0 no effect, 100 complete control)
Text: as §1, §2

johnsongrass = assay: Test E preemergence; type: in vivo, Sorghum halepense; details: for Johnsongrass plant response rating: scale 0 to 100 (0 no effect, 100 complete control)
Text: as §1, §2

fall panicum = assay: Test E preemergence; type: in vivo, Panicum dichotomiflorum; details: for Panicum, Fall plant response rating: scale 0 to 100 (0 no effect, 100 complete control)
Text: as §1, §2

morningglory = assay: Test E preemergence; type: in vivo, Ipomoea coccinea; details: for Morningglory plant response rating: scale 0 to 100 (0 no effect, 100 complete control)
Text: as §1, §2

[1] = 125 g ai/ha, scale 0 to 100, 0 no effect, 100 complete control
[2] = 8 g ai/ha, scale 0 to 100, 0 is no effect, 100 is complete control

Fc1cnc(Oc2cccc(C(F)F)c2-n2cc(C(F)(F)F)cn2)nc1 [Compound 164]
Foxtail, Giant plant response rating (giant foxtail; 16 g ai/ha): 0
Foxtail, Giant plant response rating (giant foxtail; 31 g ai/ha): 20
Foxtail, Giant plant response rating (giant foxtail; 62 g ai/ha): 60
Plant response rating, Foxtail, Giant (giant foxtail; [1]): 95
Crabgrass, Brazil plant response rating (Brazilian crabgrass; 16 g ai/ha): 0
Crabgrass, Brazil plant response rating (Brazilian crabgrass; 31 g ai/ha): 20
Crabgrass, Brazil plant response rating (Brazilian crabgrass; 62 g ai/ha): 75
Plant response rating, Crabgrass, Brazil (Brazilian crabgrass; [1]): 100
Crabgrass, Large plant response rating (large (Lg) crabgrass; 16 g ai/ha): 35
Crabgrass, Large plant response rating (large (Lg) crabgrass; 31 g ai/ha): 35
Crabgrass, Large plant response rating (large (Lg) crabgrass; 62 g ai/ha): 75
Plant response rating, Crabgrass, Large (large (Lg) crabgrass; [1]): 100
Plant response rating, Ducksalad (ducksalad; 31 g ai/ha): 0
Plant response rating, Ducksalad (ducksalad; 62 g ai/ha): 0
Plant response rating, Ducksalad (ducksalad; 125 g ai/ha): 75
Plant response rating, Ducksalad (ducksalad; 250 g ai/ha): 95
Nightshade plant response rating (nightshade; 31 g ai/ha): 50
Nightshade plant response rating (nightshade; 62 g ai/ha): 80
Plant response rating, Nightshade (nightshade; [1]): 95
Barnyardgrass plant response rating (barnyardgrass; 16 g ai/ha): 0
Barnyardgrass plant response rating (barnyardgrass; 31 g ai/ha): 0
Barnyardgrass plant response rating (barnyardgrass; 62 g ai/ha): 0
Plant response rating, Barnyardgrass (barnyardgrass; [1]): 65
Velvetleaf plant response rating (velvetleaf; 31 g ai/ha): 50
Velvetleaf plant response rating (velvetleaf; 62 g ai/ha): 100
Plant response rating, Velvetleaf (velvetleaf; [1]): 100
Foxtail, Green plant response rating (green foxtail; 16 g ai/ha): 0
Foxtail, Green plant response rating (green foxtail; 31 g ai/ha): 25
Foxtail, Green plant response rating (green foxtail; 62 g ai/ha): 60
Plant response rating, Foxtail, Green (green foxtail; [1]): 100
Plant response rating, Rice (rice; 31 g ai/ha): 0
Plant response rating, Rice (rice; 62 g ai/ha): 0
Plant response rating, Rice (rice; 125 g ai/ha): 0
Plant response rating, Rice (rice; 250 g ai/ha): 0
Poinsettia, Wild plant response rating (wild poinsettia; 31 g ai/ha): 0
Poinsettia, Wild plant response rating (wild poinsettia; 62 g ai/ha): 5
Plant response rating, Poinsettia, Wild (wild poinsettia; [1]): 30
Johnsongrass plant response rating (johnsongrass; 31 g ai/ha): 0
Johnsongrass plant response rating (johnsongrass; 62 g ai/ha): 10
Plant response rating, Johnsongrass (johnsongrass; [1]): 70
Panicum, Fall plant response rating (fall panicum; 31 g ai/ha): 0
Panicum, Fall plant response rating (fall panicum; 62 g ai/ha): 30
Plant response rating, Panicum, Fall (fall panicum; [1]): 98
Morningglory plant response rating (morningglory; 31 g ai/ha): 65
Morningglory plant response rating (morningglory; 62 g ai/ha): 35
Plant response rating, Morningglory (morningglory; [1]): 98

NC(=S)c1cccc(Oc2ncc(Cl)cn2)c1-n1cc(Cl)cn1 [Compound 292]
Plant response rating, Foxtail, Giant (giant foxtail; [2]): 0
Foxtail, Giant plant response rating (giant foxtail; 16 g ai/ha): 0
Foxtail, Giant plant response rating (giant foxtail; 31 g ai/ha): 5
Foxtail, Giant plant response rating (giant foxtail; 62 g ai/ha): 80
Plant response rating, Foxtail, Giant (giant foxtail; [1]): 95
Plant response rating, Crabgrass, Brazil (Brazilian crabgrass; [2]): 0
Crabgrass, Brazil plant response rating (Brazilian crabgrass; 16 g ai/ha): 10
Crabgrass, Brazil plant response rating (Brazilian crabgrass; 31 g ai/ha): 40
Crabgrass, Brazil plant response rating (Brazilian crabgrass; 62 g ai/ha): 100
Plant response rating, Crabgrass, Brazil (Brazilian crabgrass; [1]): 100
Plant response rating, Crabgrass, Large (large (Lg) crabgrass; [2]): 0
Crabgrass, Large plant response rating (large (Lg) crabgrass; 16 g ai/ha): 0
Crabgrass, Large plant response rating (large (Lg) crabgrass; 31 g ai/ha): 20
Crabgrass, Large plant response rating (large (Lg) crabgrass; 62 g ai/ha): 90
Plant response rating, Crabgrass, Large (large (Lg) crabgrass; [1]): 100
Plant response rating, Nightshade (nightshade; [2]): 0
Nightshade plant response rating (nightshade; 31 g ai/ha): 5
Nightshade plant response rating (nightshade; 62 g ai/ha): 70
Plant response rating, Nightshade (nightshade; [1]): 80
Plant response rating, Barnyardgrass (barnyardgrass; [2]): 0
Barnyardgrass plant response rating (barnyardgrass; 16 g ai/ha): 0
Barnyardgrass plant response rating (barnyardgrass; 31 g ai/ha): 0
Barnyardgrass plant response rating (barnyardgrass; 62 g ai/ha): 0
Plant response rating, Barnyardgrass (barnyardgrass; [1]): 40
Plant response rating, Velvetleaf (velvetleaf; [2]): 0
Velvetleaf plant response rating (velvetleaf; 31 g ai/ha): 30
Velvetleaf plant response rating (velvetleaf; 62 g ai/ha): 35
Plant response rating, Velvetleaf (velvetleaf; [1]): 90
Plant response rating, Foxtail, Green (green foxtail; [2]): 0
Foxtail, Green plant response rating (green foxtail; 16 g ai/ha): 0
Foxtail, Green plant response rating (green foxtail; 31 g ai/ha): 10
Foxtail, Green plant response rating (green foxtail; 62 g ai/ha): 25
Plant response rating, Foxtail, Green (green foxtail; [1]): 75
Plant response rating, Poinsettia, Wild (wild poinsettia; [2]): 0
Poinsettia, Wild plant response rating (wild poinsettia; 31 g ai/ha): 5
Poinsettia, Wild plant response rating (wild poinsettia; 62 g ai/ha): 35
Plant response rating, Poinsettia, Wild (wild poinsettia; [1]): 60
Plant response rating, Johnsongrass (johnsongrass; [2]): 0
Johnsongrass plant response rating (johnsongrass; 31 g ai/ha): 15
Johnsongrass plant response rating (johnsongrass; 62 g ai/ha): 20
Plant response rating, Johnsongrass (johnsongrass; [1]): 35
Plant response rating, Panicum, Fall (fall panicum; [2]): 0
Panicum, Fall plant response rating (fall panicum; 31 g ai/ha): 0
Panicum, Fall plant response rating (fall panicum; 62 g ai/ha): 90
Plant response rating, Panicum, Fall (fall panicum; [1]): 100
Plant response rating, Morningglory (morningglory; [2]): 0
Morningglory plant response rating (morningglory; 31 g ai/ha): 0
Morningglory plant response rating (morningglory; 62 g ai/ha): 15
Plant response rating, Morningglory (morningglory; [1]): 50

— US9695155B2, “Herbicidal substituted pyrimidinyloxy benzene compounds” (E. I. DU PONT DE NEMOURS AND COMPANY, priority 2013, dated 2017)
